In publication PMC2358886, “Evolution of pharmacologic specificity in the pregnane X receptor” (BMC Evolutionary Biology, 2008):
Read-outs that look alike come from different tables or passages of the source.

How the values were obtained:
chicken PXR [1] = target: T1, chicken PXR (Gallus gallus, UniProt Q9DFH3); test: cell-based
T1 sequence (Q9DFH3 1-391): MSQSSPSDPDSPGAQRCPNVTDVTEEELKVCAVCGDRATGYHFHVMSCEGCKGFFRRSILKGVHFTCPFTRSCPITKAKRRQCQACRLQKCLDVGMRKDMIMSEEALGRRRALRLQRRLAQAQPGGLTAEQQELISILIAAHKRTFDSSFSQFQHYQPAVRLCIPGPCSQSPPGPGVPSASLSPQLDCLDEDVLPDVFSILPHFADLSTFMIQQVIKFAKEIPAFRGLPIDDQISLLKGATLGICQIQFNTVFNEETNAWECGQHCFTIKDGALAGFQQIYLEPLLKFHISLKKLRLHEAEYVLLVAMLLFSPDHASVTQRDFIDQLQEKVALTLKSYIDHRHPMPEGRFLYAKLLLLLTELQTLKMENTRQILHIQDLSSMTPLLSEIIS

HepG2 cells [2] = tested on: HepG2 cells
zebrafish PXR [3] = target: T2, zebrafish PXR (Danio rerio, UniProt A5WYG8)
T2 sequence (A5WYG8 144-430): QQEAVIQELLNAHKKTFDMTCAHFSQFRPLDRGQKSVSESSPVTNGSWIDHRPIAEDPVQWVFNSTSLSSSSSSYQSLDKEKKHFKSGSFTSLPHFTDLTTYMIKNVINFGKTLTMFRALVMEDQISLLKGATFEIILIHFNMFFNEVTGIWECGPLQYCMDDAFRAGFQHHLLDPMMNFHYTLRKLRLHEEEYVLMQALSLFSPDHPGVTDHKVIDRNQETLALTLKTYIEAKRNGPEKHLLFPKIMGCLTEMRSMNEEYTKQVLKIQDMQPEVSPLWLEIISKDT

zebrafish PXR [4] = target: T2, zebrafish PXR; test: cell-based
chicken PXR [5] = target: T1, chicken PXR
human PXR [6] = target: T3, human PXR (Homo sapiens, UniProt O75469); details: for hPXR Efficacy: human
T3 sequence (O75469 1-434): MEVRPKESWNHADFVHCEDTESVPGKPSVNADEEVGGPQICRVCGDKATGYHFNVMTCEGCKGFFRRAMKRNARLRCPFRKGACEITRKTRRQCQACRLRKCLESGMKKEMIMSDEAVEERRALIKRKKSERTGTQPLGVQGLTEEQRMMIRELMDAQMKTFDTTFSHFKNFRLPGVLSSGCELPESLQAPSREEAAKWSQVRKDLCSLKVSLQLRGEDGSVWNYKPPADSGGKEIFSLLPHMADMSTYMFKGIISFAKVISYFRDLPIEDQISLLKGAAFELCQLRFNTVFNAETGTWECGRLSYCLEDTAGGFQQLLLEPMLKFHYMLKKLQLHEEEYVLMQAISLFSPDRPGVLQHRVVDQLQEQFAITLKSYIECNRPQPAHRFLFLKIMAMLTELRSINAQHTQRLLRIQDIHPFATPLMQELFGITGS

human PXR [7] = target: T3, human PXR; test: PXR activation luciferase reporter assay, human PXR in HepG2-NTCP cells
mouse PXR [8] = target: T4, mouse PXR (Mus musculus, UniProt O54915)
T4 sequence (O54915 1-431): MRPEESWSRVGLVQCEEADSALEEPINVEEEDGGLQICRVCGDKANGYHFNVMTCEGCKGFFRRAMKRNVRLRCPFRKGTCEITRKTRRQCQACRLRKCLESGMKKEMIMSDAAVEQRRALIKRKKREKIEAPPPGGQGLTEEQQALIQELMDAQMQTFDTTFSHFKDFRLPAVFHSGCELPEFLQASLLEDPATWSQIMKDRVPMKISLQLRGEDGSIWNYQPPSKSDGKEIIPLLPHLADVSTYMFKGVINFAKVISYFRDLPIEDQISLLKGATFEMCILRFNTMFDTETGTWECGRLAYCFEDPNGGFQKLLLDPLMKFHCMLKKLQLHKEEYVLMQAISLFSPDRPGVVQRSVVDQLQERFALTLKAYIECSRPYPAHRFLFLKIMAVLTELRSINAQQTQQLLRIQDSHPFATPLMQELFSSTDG

rat PXR [9] = target: T5, rat PXR (Rattus norvegicus, UniProt Q9R1A7); test: cell-based
T5 sequence (Q9R1A7 1-431): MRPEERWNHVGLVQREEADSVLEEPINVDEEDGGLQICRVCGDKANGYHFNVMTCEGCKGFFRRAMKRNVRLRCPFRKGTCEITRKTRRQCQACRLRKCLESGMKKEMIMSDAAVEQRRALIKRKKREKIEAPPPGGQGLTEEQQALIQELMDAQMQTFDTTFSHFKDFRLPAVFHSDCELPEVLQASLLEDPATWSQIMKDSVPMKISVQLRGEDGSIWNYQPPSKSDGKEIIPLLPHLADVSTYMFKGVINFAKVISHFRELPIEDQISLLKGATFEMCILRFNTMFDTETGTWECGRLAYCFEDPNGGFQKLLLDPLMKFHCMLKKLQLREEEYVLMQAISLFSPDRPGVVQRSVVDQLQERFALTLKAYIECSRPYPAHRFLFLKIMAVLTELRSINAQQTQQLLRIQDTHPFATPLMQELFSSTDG

rabbit PXR = target: T6, rabbit PXR (Oryctolagus cuniculus, UniProt Q9TU02); test: PXR activation luciferase reporter assay, rabbit PXR; details: for Rabbit PXR efficacy, ε: relative to 50 μM 5α-pregnan-3,20-dione, assigned an efficacy of 1.0
T6 sequence (Q9TU02 1-411): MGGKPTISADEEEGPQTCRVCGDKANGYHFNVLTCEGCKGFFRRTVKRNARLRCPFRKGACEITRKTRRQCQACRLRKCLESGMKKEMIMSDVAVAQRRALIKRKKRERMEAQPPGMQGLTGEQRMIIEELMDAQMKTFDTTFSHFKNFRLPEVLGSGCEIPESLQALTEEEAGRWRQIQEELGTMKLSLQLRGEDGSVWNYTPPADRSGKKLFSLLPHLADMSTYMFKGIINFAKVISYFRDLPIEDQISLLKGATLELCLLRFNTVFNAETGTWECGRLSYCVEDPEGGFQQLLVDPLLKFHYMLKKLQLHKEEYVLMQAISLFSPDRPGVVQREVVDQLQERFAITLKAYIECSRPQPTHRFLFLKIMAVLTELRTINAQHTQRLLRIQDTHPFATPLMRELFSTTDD

rat PXR [10] = target: T5, rat PXR; details: for Rat PXR efficacy, ε: relative to 20 μM pregnenolone 16α-carbonitrile, assigned an efficacy of 1.0
mouse PXR [11] = target: T4, mouse PXR; test: cell-based
HepG2 cells [12] = test: Toxicity assays in HepG2 cells (MTT and alamar blue reduction); details: lowest concentration that produced significant toxicity in the HepG2 cells
[13] = relative to 20 μM 5α-androstan-3α-ol, assigned an efficacy of 1.0
[14] = hPXR Activity, -log(EC50), EC50 in molar units, activation of human PXR
[15] = -log(EC50), EC50 in molar units
[16] = relative to 20 μM pregnenolone 16α-carbonitrile, assigned an efficacy of 1.0

C[C@@]12CCC[C@H]1[C@@H]1CC[C@H]3C[C@H](O)CC[C@]3(C)[C@H]1CC2 [AN3, 5α-Androstan-3α-ol]
EC50 (chicken PXR [1]): 4.17 µM | Toxicity (HepG2 cells [2]): None | zfPXR Efficacy (zebrafish PXR [3]; [13]): 1.00 | EC50 (zebrafish PXR [4]): 4.57 µM | Chicken PXR efficacy, ε (chicken PXR [5]; chicken): 0.85 | hPXR Efficacy (human PXR [6]): 0.5 | EC50 (human PXR [7]; [14]): 6.31 µM

C[C@H](CCC(=O)O)[C@H]1CC[C@H]2[C@@H]3CC[C@@H]4C[C@H](O)CC[C@]4(C)[C@H]3C[C@H](O)[C@]12C [BI008, Deoxycholic acid]
Mouse PXR Activity (mouse PXR [8]; [15]): No effect | EC50 (rat PXR [9]): 10 µM | Chicken PXR Activity (chicken PXR [5]): No effect | EC50 (rabbit PXR): 36.3 µM | Rabbit PXR efficacy, ε (rabbit PXR): 0.37 | Rat PXR efficacy, ε (rat PXR [10]): 0.32

C[C@H](CCC(=O)NCCS(=O)(=O)O)[C@H]1CC[C@H]2[C@@H]3[C@H](O)C[C@@H]4C[C@H](O)CC[C@]4(C)[C@H]3C[C@H](O)[C@]12C [BI022, Taurocholic acid]
EC50 (mouse PXR [11]): 85.1 µM | Chicken PXR Activity (chicken PXR [5]): No effect | Rat PXR Activity (rat PXR [10]; [15]): No effect

CC(C)CCC[C@@H](C)[C@H]1CC[C@H]2[C@@H]3[C@H](O)C[C@@H]4C[C@H](O)CC[C@]4(C)[C@H]3C[C@H](O)[C@]12C [BI023, 5β-Cholestan-3α,7α,12α-triol]
EC50 (chicken PXR [1]): 1.29 µM | EC50 (mouse PXR [11]): 1.41 µM | Mouse PXR efficacy, ε (mouse PXR [8]; [16]): 1.23 | EC50 (rat PXR [9]): 2.24 µM | Chicken PXR efficacy, ε (chicken PXR [5]; chicken): 0.27 | EC50 (rabbit PXR): 3.89 µM | Rabbit PXR efficacy, ε (rabbit PXR): 0.37 | Rat PXR efficacy, ε (rat PXR [10]): 0.72

CC(CCCC(CO)COS(=O)(=O)O)[C@H]1CCC2C3C(C[C@H](O)[C@@]21C)[C@@]1(C)CC[C@@H](O)C[C@@H]1C[C@H]3O (stereo partly drawn) [BI036, 5β-Cholestan-3α,7α,12α,26-tetrol-27-sulfate]
EC50 (chicken PXR [1]): 30.9 µM | Toxicity (HepG2 cells [2]): None | Activation of zebrafish PXR (in words) (zebrafish PXR [3]; bile salts): activated | zfPXR Efficacy (zebrafish PXR [3]; zebrafish): 0.75 | EC50 (zebrafish PXR [4]): 43.7 µM | EC50 (mouse PXR [11]): 16.6 µM | Mouse PXR efficacy, ε (mouse PXR [8]; [16]): 0.29 | EC50 (rat PXR [9]): 31.6 µM | Chicken PXR efficacy, ε (chicken PXR [5]; chicken): 0.61 | EC50 (rabbit PXR): 81.3 µM | Rabbit PXR efficacy, ε (rabbit PXR): 0.43 | Activation of human PXR (in words) (human PXR [6]): activated | Rat PXR efficacy, ε (rat PXR [10]): 0.28 | EC50 (human PXR [7]; [14]): 25.7 µM

Clc1cc2c(cc1Cl)Oc1cc(Cl)c(Cl)cc1O2 [MI34, 2,3,7,8-tetrachlorodibenzo-p-dioxin]
EC50 (chicken PXR [1]): 0.0912 µM | zfPXR Efficacy (zebrafish PXR [3]; [13]): 6.17 | EC50 (zebrafish PXR [4]; zfPXR Activity, -log(EC50), EC50 in molar units, activation of zebrafish PXR): 0.479 µM | EC50 (mouse PXR [11]): 0.1 µM | Mouse PXR efficacy, ε (mouse PXR [8]; [16]): 1.60 | EC50 (rat PXR [9]): 0.2 µM | Chicken PXR efficacy, ε (chicken PXR [5]; relative to 20 μM nifedipine, assigned an efficacy of 1.0): 0.06 | Activation of rabbit PXR (in words) (rabbit PXR): inactive | Rabbit PXR Activity (rabbit PXR; [15]): No effect | Rat PXR efficacy, ε (rat PXR [10]): 0.83 | EC50 (human PXR [7]): 0.0676 µM | hPXR Efficacy (human PXR [7]; relative to 10 μM rifampicin, assigned an efficacy of 1.0): 1.78 | Toxicity (HepG2 cells [12]): 10 µM

CC(=O)[C@H]1CC[C@H]2[C@@H]3CC[C@@H]4CC(=O)CC[C@]4(C)[C@H]3CC[C@]12C [PR2, 5β-Pregnan-3,20-dione]
EC50 (chicken PXR [1]): 2.57 µM | Toxicity (HepG2 cells [2]): None | zfPXR Efficacy (zebrafish PXR [3]; zebrafish): 0.85 | EC50 (zebrafish PXR [4]): 0.832 µM | EC50 (mouse PXR [11]): 4.37 µM | Mouse PXR efficacy, ε (mouse PXR [8]; mouse): 5.36 (ε = 0.84) | EC50 (rat PXR [9]): 5.75 µM | Chicken PXR efficacy, ε (chicken PXR [5]; chicken): 5.59 (ε = 0.81) | EC50 (rabbit PXR): 12.6 µM | hPXR Efficacy (human PXR [6]): 0.97 | EC50 (human PXR [7]; hPXR Activity): 2.57 µM
